From patent US20190287644A1, “Correlation Method To Identify Relevant Genes For Personalized Treatment Of Complex Disease” (Northeastern University, priority 2018, published 2019) come the findings set out here.

Test [1] concerns Hybrid Mouse Diversity Panel (HMDP) strains. Kind of test: ISO-induced cardiac hypertrophy (total heart weight) in the Hybrid Mouse Diversity Panel. In kind it is in vivo. The note with it: across HMDP strains, three weeks after implantation of ISO pump (30 mg per kg per day, 21 days). The method, then: 30 mg per kg body weight per day of Isoproterenol (ISO) was administered for 21 days in 8-10 week old female mice using ALZET osmotic mini-pumps, which were surgically implanted intraperitoneally. All animal experiments were conducted following guidelines established and approved by the University of California, Los Angeles Institutional Animal Care and Use Committee (IACUC) and housed in an IACUC-approved vivarium with daily monitoring by vivarium personnel.
As each mouse in a strain is genetically identical, several mice from the same strain were used for measuring the cardiac hypertrophic response to ISO treatment. […] Cardiac hypertrophy for a given strain was calculated as the increase in average total heart weight after ISO treatment compared to control mice.
One can also perform an entirely novel type of differential gene expression analysis owing to the fact that, in addition to control and treated subjects belonging to the same strain having the same genetic background, the change of heart mass in response to ISO, i.e., the ratio m′i/mi of total heart mass before (mi) and after ISO treatment (m′i) for strain i, can be measured for all strains (i=1, 2, . . . , N) to assess the degree of hypertrophy among different strains. […]

Test [2] relates to neonatal rat ventricular myocytes (NRVMs). Briefly: Cardiomyocyte cell cross-sectional area. Type of test: cell-based. The note with it: cells transfected with control siRNA, following ISO/PE treatment. From the text: (§1) Right ventricular myocytes were isolated and cultured, as reported using 2-4 day old rats. Myocytes and fibroblasts were separated with Percoll density gradient. For knockdown experiments cells were transfected with Hes1 siRNA using lipofectamine RNAimax (life technologies).
Quantification of cardiomyocyte cell cross-sectional area was done following transfection with either control or Hes1 siRNA and a 48-hour treatment with control or isoproterenol or phenylepherine containing media. Images were taken on a Nikon Eclipse TE2000-U microscope. Images were analyzed using the Nikon Imagine System (NIS). 150 cells were used to compute the SEM.

Test [3] relates to Nppa and Nppb. Briefly: Expression of hypertrophic markers Nppa and Nppb in neonatal rat ventricular myocytes (qPCR). Type of test: cell-based. The note with it: NRVMs transfected with control siRNA. The method, then: as §1
RNA isolation from cells was performed using Qiazol lysis reagent. cDNA synthesis was performed using the High Capacity Reverse Transcription cDNA Kit (Life Technologies). qPCR was performed using the LightCycler 480 (Roche).
A general note: Quantitative PCR measures a nucleic acid by following its amplification.

Bounds are passed on as bounds.

In the case of `CC(C)NCC(O)c1ccc(O)c(O)c1` (stereo not shown) [ISO, isoproterenol], the “increase of heart mass” value in test [1] was at most 80%. In test [2], the cellular cross-sectional area entry is reported as “doubled”. In test [3], the “increase of Nppa expression” value is 3.5 fold and the “increase of Nppb expression” value was 7.9 fold.

`CNC[C@H](O)c1cccc(O)c1` [PE, phenylephrine]: in test [2], the cellular cross-sectional area result is on record as “doubled”. For the same compound, in test [3], the “increase of Nppa expression” value was found to be 11 fold and the “increase of Nppb expression” value is reported as 13 fold.
